Source: ChEMBL document CHEMBL3885861, “Open TG-GATES”

Species on record: Rattus norvegicus
Assay: Open TG-GATES - Regimen: Daily Repeat
Type: toxicity, organism-based, Sprague-Dawley
Design: regimen Daily Repeat, gender Male, age 6 weeks
Conditions: in vivo, po, 10 mg/kg, route gavage, dose level Middle; for APTT / Bas / Eos / Fbg / Hb / Ht / Lym / MCH / MCHC / MCV / Mono / Neu / PT / Plat / RBC / Ret / WBC: tissue Blood; for KIDNEY_L / KIDNEY_R / KIDNEY_TOTAL: tissue Kidney; for LIVER: tissue Liver; for A/G / ALP / ALT / AST / BUN / CRE / Ca / Cl / DBIL / GLC / IP / K / LDH / Na / PL / RALB / TBIL / TC / TG / TP / gamma-GTP: tissue Plasma

Structure (SMILES): C=CCO [ALLYL ALCOHOL]
- TERMINAL_BW (72 h, time 3 day): 233.1 g
- APTT (72 h, time 3 day): 20.8 s
- Bas (72 h, time 3 day): 0%
- Eos (72 h, time 3 day): 0.6%
- Fbg (72 h, time 3 day): 233.2 mg/dL
- Hb (72 h, time 3 day): 13.9 g/dL
- Ht (72 h, time 3 day): 40.8%
- Lym (72 h, time 3 day): 77.4%
- MCH (72 h, time 3 day): 20.6 pg
- MCHC (72 h, time 3 day): 33.9%
- MCV (72 h, time 3 day): 60.7 fL
- Mono (72 h, time 3 day): 3.6%
- Neu (72 h, time 3 day): 17.8%
- PT (72 h, time 3 day): 11.7 s
- Plat (72 h, time 3 day): 133.2 x10_4/uL
- RBC (72 h, time 3 day): 672.8 x10_4/ul
- Ret (72 h, time 3 day): 5.1%
- WBC (72 h, time 3 day): 116 x10_2/uL
- KIDNEY_L (72 h, time 3 day): 1 g
- KIDNEY_R (72 h, time 3 day): 1 g
- KIDNEY_TOTAL (72 h, time 3 day): 2.1 g
- LIVER (72 h, time 3 day): 11.2 g
- A/G (72 h, time 3 day): 1.6
- ALP (72 h, time 3 day): 921.4 IU/L
- ALT (72 h, time 3 day): 35.2 IU/L
- AST (72 h, time 3 day): 67.6 IU/L
- BUN (72 h, time 3 day): 14 mg/dL
- CRE (72 h, time 3 day): 0.4 mg/dL
- Ca (72 h, time 3 day): 10.7 mg/dL
- Cl (72 h, time 3 day): 103 meq/L
- DBIL (72 h, time 3 day): 0.066 mg/dL
- GLC (72 h, time 3 day): 207.8 mg/dL
- IP (72 h, time 3 day): 6.6 mg/dL
- K (72 h, time 3 day): 3.9 meq/L
- LDH (72 h, time 3 day): 226 IU/L
- Na (72 h, time 3 day): 140.2 meq/L
- PL (72 h, time 3 day): 142 mg/dL
- RALB (72 h, time 3 day): 3.3 g/dL
- TBIL (72 h, time 3 day): 0.1 mg/dL
- TC (72 h, time 3 day): 78 mg/dL
- TG (72 h, time 3 day): 78 mg/dL
- TP (72 h, time 3 day): 5.3 g/dL
- gamma-GTP (72 h, time 3 day): 1 IU/L
- TERMINAL_BW ([…], time 7 day): 267.6 g
- TERMINAL_BW ([…], time 14 day): 329.3 g
- TERMINAL_BW ([…], time 28 day): 403.7 g
- APTT ([…], time 7 day): 18.2 s
- Bas ([…], time 7 day): 0%
- Eos ([…], time 7 day): 0.8%
- Fbg ([…], time 7 day): 219 mg/dL
- Hb ([…], time 7 day): 13.5 g/dL
- Ht ([…], time 7 day): 39.7%
- Lym ([…], time 7 day): 82.6%
- MCH ([…], time 7 day): 20.5 pg
- MCHC ([…], time 7 day): 34%
- MCV ([…], time 7 day): 60.2 fL
- Mono ([…], time 7 day): 2.6%
- Neu ([…], time 7 day): 13.4%
- PT ([…], time 7 day): 12 s
- Plat ([…], time 7 day): 137.3 x10_4/uL
- RBC ([…], time 7 day): 661 x10_4/ul
- Ret ([…], time 7 day): 4.5%
- WBC ([…], time 7 day): 128.8 x10_2/uL
- APTT ([…], time 14 day): 19.2 s
- Bas ([…], time 14 day): 0%
- Eos ([…], time 14 day): 1%
- Fbg ([…], time 14 day): 225.8 mg/dL
- Hb ([…], time 14 day): 14.3 g/dL
- Ht ([…], time 14 day): 41.2%
- Lym ([…], time 14 day): 77.8%
- MCH ([…], time 14 day): 20.4 pg
- MCHC ([…], time 14 day): 34.7%
- MCV ([…], time 14 day): 58.8 fL
- Mono ([…], time 14 day): 3%
- Neu ([…], time 14 day): 17.8%
- PT ([…], time 14 day): 11.8 s
- Plat ([…], time 14 day): 134 x10_4/uL
- RBC ([…], time 14 day): 700.4 x10_4/ul
- Ret ([…], time 14 day): 4.5%
- WBC ([…], time 14 day): 123.8 x10_2/uL
- APTT ([…], time 28 day): 20 s
- Bas ([…], time 28 day): 0%
- Eos ([…], time 28 day): 1%
- Fbg ([…], time 28 day): 225.2 mg/dL
- Hb ([…], time 28 day): 15.2 g/dL
- Ht ([…], time 28 day): 44%
- Lym ([…], time 28 day): 80.8%
- MCH ([…], time 28 day): 19.6 pg
- MCHC ([…], time 28 day): 34.5%
- MCV ([…], time 28 day): 57 fL
- Mono ([…], time 28 day): 1.6%
- Neu ([…], time 28 day): 15.6%
- PT ([…], time 28 day): 12 s
- Plat ([…], time 28 day): 108.6 x10_4/uL
- RBC ([…], time 28 day): 772.6 x10_4/ul
- Ret ([…], time 28 day): 3%
- WBC ([…], time 28 day): 116.6 x10_2/uL
- KIDNEY_L ([…], time 7 day): 1.1 g
- KIDNEY_R ([…], time 7 day): 1.1 g
- KIDNEY_TOTAL ([…], time 7 day): 2.2 g
- KIDNEY_L ([…], time 14 day): 1.3 g
- KIDNEY_R ([…], time 14 day): 1.3 g
- KIDNEY_TOTAL ([…], time 14 day): 2.6 g
- KIDNEY_L ([…], time 28 day): 1.4 g
- KIDNEY_R ([…], time 28 day): 1.4 g
- KIDNEY_TOTAL ([…], time 28 day): 2.8 g
- LIVER ([…], time 7 day): 12.3 g
- LIVER ([…], time 14 day): 15 g
- LIVER ([…], time 28 day): 17.1 g
- A/G ([…], time 7 day): 1.5
- ALP ([…], time 7 day): 970.4 IU/L
- ALT ([…], time 7 day): 36 IU/L
- AST ([…], time 7 day): 66 IU/L
- BUN ([…], time 7 day): 14.4 mg/dL
- CRE ([…], time 7 day): 0.4 mg/dL
- Ca ([…], time 7 day): 10.8 mg/dL
- Cl ([…], time 7 day): 102.2 meq/L
- DBIL ([…], time 7 day): 0.06 mg/dL
- GLC ([…], time 7 day): 202.6 mg/dL
- IP ([…], time 7 day): 6.7 mg/dL
- K ([…], time 7 day): 3.8 meq/L
- LDH ([…], time 7 day): 205.8 IU/L
- Na ([…], time 7 day): 140.8 meq/L
- PL ([…], time 7 day): 143.4 mg/dL
- RALB ([…], time 7 day): 3.3 g/dL
- TBIL ([…], time 7 day): 0.1 mg/dL
- TC ([…], time 7 day): 73.8 mg/dL
- TG ([…], time 7 day): 75.6 mg/dL
- TP ([…], time 7 day): 5.5 g/dL
- gamma-GTP ([…], time 7 day): 0.8 IU/L
- A/G ([…], time 14 day): 1.4
- ALP ([…], time 14 day): 736 IU/L
- ALT ([…], time 14 day): 33.8 IU/L
- AST ([…], time 14 day): 59.6 IU/L
- BUN ([…], time 14 day): 15.8 mg/dL
- CRE ([…], time 14 day): 0.4 mg/dL
- Ca ([…], time 14 day): 10.7 mg/dL
- Cl ([…], time 14 day): 100.8 meq/L
- DBIL ([…], time 14 day): 0.076 mg/dL
- GLC ([…], time 14 day): 232.4 mg/dL
- IP ([…], time 14 day): 6.6 mg/dL
- K ([…], time 14 day): 3.5 meq/L
- LDH ([…], time 14 day): 211.4 IU/L
- Na ([…], time 14 day): 139.8 meq/L
- PL ([…], time 14 day): 148.8 mg/dL
- RALB ([…], time 14 day): 3.3 g/dL
- TBIL ([…], time 14 day): 0.1 mg/dL
- TC ([…], time 14 day): 74 mg/dL
- TG ([…], time 14 day): 110.4 mg/dL
- TP ([…], time 14 day): 5.7 g/dL
- gamma-GTP ([…], time 14 day): 1 IU/L
- A/G ([…], time 28 day): 1.4
- ALP ([…], time 28 day): 568 IU/L
- ALT ([…], time 28 day): 33.6 IU/L
- AST ([…], time 28 day): 60.2 IU/L
- BUN ([…], time 28 day): 15.6 mg/dL
- CRE ([…], time 28 day): 0.5 mg/dL
- Ca ([…], time 28 day): 10.7 mg/dL
- Cl ([…], time 28 day): 102.6 meq/L
- DBIL ([…], time 28 day): 0.084 mg/dL
- GLC ([…], time 28 day): 221 mg/dL
- IP ([…], time 28 day): 6 mg/dL
- K ([…], time 28 day): 3.6 meq/L
- LDH ([…], time 28 day): 205.2 IU/L
- Na ([…], time 28 day): 140.6 meq/L
- PL ([…], time 28 day): 142.4 mg/dL
- RALB ([…], time 28 day): 3.6 g/dL
- TBIL ([…], time 28 day): 0.1 mg/dL
- TC ([…], time 28 day): 70.8 mg/dL
- TG ([…], time 28 day): 104.6 mg/dL
- TP ([…], time 28 day): 6.2 g/dL
- gamma-GTP ([…], time 28 day): 1 IU/L
